Source: PubChem BioAssay AID2060495 (Molecular Pharmacology Branch, DTP, NCI, 2025)

System: 521955-158-R2-J5-PDC complex spheroid viability
Test: Anticancer human tumor 521955-158-R2-J5-PDC patient-derived pancreatic carcinoma cell line growth inhibition [GQUAD]
Conditions: for IC50: curve of first compound; for viability, T/C: stronger effect = lower value
Method in brief: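 Tumor cells were grown as complex spheroids with HUVEC endothelial cells and mesenchymal stem cells as stroma. G-quadruplex stabilizers were combined with targeted agents over half-log dilutions from near the clinical Cmax, or from 10 microM.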

[1] = second compound 0.0316 µM, first compound 0.0316 µM
[2] = second compound 0.0316 µM, first compound 0.1 µM
[3] = second compound 0.0316 µM, first compound 0.316 µM
[4] = second compound 0.0316 µM, first compound 1 µM
[5] = second compound 0.0316 µM, first compound 3.16 µM
[6] = second compound 0.0316 µM, first compound 10 µM
[7] = second compound 0.1 µM, first compound 0.0316 µM
[8] = second compound 0.1 µM, first compound 0.1 µM
[9] = second compound 0.1 µM, first compound 0.316 µM
[10] = second compound 0.1 µM, first compound 1 µM
[11] = second compound 0.1 µM, first compound 3.16 µM
[12] = second compound 0.1 µM, first compound 10 µM
[13] = second compound 0.316 µM, first compound 0.0316 µM
[14] = second compound 0.316 µM, first compound 0.1 µM
[15] = second compound 0.316 µM, first compound 0.316 µM
[16] = second compound 0.316 µM, first compound 1 µM
[17] = second compound 0.316 µM, first compound 3.16 µM
[18] = second compound 0.316 µM, first compound 10 µM
[19] = second compound 1 µM, first compound 0.0316 µM
[20] = second compound 1 µM, first compound 0.1 µM
[21] = second compound 1 µM, first compound 0.316 µM
[22] = second compound 1 µM, first compound 1 µM
[23] = second compound 1 µM, first compound 3.16 µM
[24] = second compound 1 µM, first compound 10 µM
[25] = second compound 3.16 µM, first compound 0.0316 µM
[26] = second compound 3.16 µM, first compound 0.1 µM
[27] = second compound 3.16 µM, first compound 0.316 µM
[28] = second compound 3.16 µM, first compound 1 µM
[29] = second compound 3.16 µM, first compound 3.16 µM
[30] = second compound 3.16 µM, first compound 10 µM
[31] = second compound 10 µM, first compound 0.0316 µM
[32] = second compound 10 µM, first compound 0.1 µM
[33] = second compound 10 µM, first compound 0.316 µM
[34] = second compound 10 µM, first compound 1 µM
[35] = second compound 10 µM, first compound 3.16 µM
[36] = second compound 10 µM, first compound 10 µM
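Note: spheroids exposed to agents for one week before reading.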
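Throughout, for viability, T/C: 100% = DMSO vehicle control viability.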

C=CC(=O)N1CCN(c2nc(=O)n(-c3c(C)ccnc3C(C)C)c3nc(-c4c(O)cccc4F)c(F)cc23)C(C)C1 (stereo not drawn) + Cc1cnc(CNC(=O)c2c(=O)c3ccc(N4CCCN(C)CC4)nc3n3c2sc2ccccc23)cn1
IC50 (second compound 0.0316 µM): > 10 µM
IC50 (second compound 0.1 µM): > 10 µM
IC50 (second compound 0.316 µM): < 0.0316 µM
IC50 (second compound 1 µM): < 0.0316 µM
IC50 (second compound 3.16 µM): < 0.0316 µM
IC50 (second compound 10 µM): < 0.0316 µM
viability, T/C [1]: 81%
viability, T/C [2]: 70.8%
viability, T/C [3]: 84.4%
viability, T/C [4]: 79.2%
viability, T/C [5]: 77%
viability, T/C [6]: 72.2%
viability, T/C [7]: 60.3%
viability, T/C [8]: 55.3%
viability, T/C [9]: 56.1%
viability, T/C [10]: 57.3%
viability, T/C [11]: 61.5%
viability, T/C [12]: 52.9%
viability, T/C [13]: 36.6%
viability, T/C [14]: 32.1%
viability, T/C [15]: 33.7%
viability, T/C [16]: 46.9%
viability, T/C [17]: 49.1%
viability, T/C [18]: 32.1%
viability, T/C [19]: 21.5%
viability, T/C [20]: 20.2%
viability, T/C [21]: 19.7%
viability, T/C [22]: 26.2%
viability, T/C [23]: 21.7%
viability, T/C [24]: 19.3%
viability, T/C [25]: 22.8%
viability, T/C [26]: 17.6%
viability, T/C [27]: 19.9%
viability, T/C [28]: 20.5%
viability, T/C [29]: 25%
viability, T/C [30]: 18.4%
viability, T/C [31]: 18.4%
viability, T/C [32]: 18.5%
viability, T/C [33]: 20.9%
viability, T/C [34]: 18%
viability, T/C [35]: 13.7%
viability, T/C [36]: 15.8%

O=C(c1cc(Cc2n[nH]c(=O)c3ccccc23)ccc1F)N1CCN(C(=O)C2CC2)CC1 + Cc1[nH]c2ccc(F)cc2c1-c1nc2c3cccnc3c3ncccc3c2[nH]1
IC50 (second compound 0.0316 µM): > 10 µM
IC50 (second compound 0.1 µM): > 10 µM
IC50 (second compound 0.316 µM): > 10 µM
IC50 (second compound 1 µM): > 10 µM
IC50 (second compound 3.16 µM): > 10 µM
IC50 (second compound 10 µM): > 10 µM
viability, T/C [1]: 84.3%
viability, T/C [2]: 88.5%
viability, T/C [3]: 89.8%
viability, T/C [4]: 80.4%
viability, T/C [5]: 93%
viability, T/C [6]: 74.5%
viability, T/C [7]: 83.4%
viability, T/C [8]: 80%
viability, T/C [9]: 82%
viability, T/C [10]: 83.2%
viability, T/C [11]: 87.9%
viability, T/C [12]: 96.3%
viability, T/C [13]: 80.9%
viability, T/C [14]: 76.9%
viability, T/C [15]: 102%
viability, T/C [16]: 102%
viability, T/C [17]: 88.3%
viability, T/C [18]: 91%
viability, T/C [19]: 92.4%
viability, T/C [20]: 93%
viability, T/C [21]: 99.4%
viability, T/C [22]: 98.8%
viability, T/C [23]: 104%
viability, T/C [24]: 92.7%
viability, T/C [25]: 91.8%
viability, T/C [26]: 104%
viability, T/C [27]: 78.7%
viability, T/C [28]: 98.3%
viability, T/C [29]: 98.7%
viability, T/C [30]: 84.5%
viability, T/C [31]: 86.8%
viability, T/C [32]: 92.7%
viability, T/C [33]: 88.2%
viability, T/C [34]: 102%
viability, T/C [35]: 92.5%
viability, T/C [36]: 82.6%

O=c1[nH]cc(F)c(=O)[nH]1 + CN(C)c1ccc(Nc2c3ccc(NC(=O)CCN4CCCC4)cc3nc3cc(NC(=O)CCN4CCCC4)ccc23)cc1
IC50 (second compound 0.0316 µM): > 10 µM
IC50 (second compound 0.1 µM): > 10 µM
IC50 (second compound 0.316 µM): > 10 µM
IC50 (second compound 1 µM): > 10 µM
IC50 (second compound 3.16 µM): > 10 µM
IC50 (second compound 10 µM): > 10 µM
viability, T/C [1]: 103%
viability, T/C [2]: 112%
viability, T/C [3]: 97.8%
viability, T/C [4]: 105%
viability, T/C [5]: 109%
viability, T/C [6]: 51.5%
viability, T/C [7]: 91.3%
viability, T/C [8]: 88.9%
viability, T/C [9]: 95.9%
viability, T/C [10]: 93.4%
viability, T/C [11]: 95%
viability, T/C [12]: 56.1%
viability, T/C [13]: 91.3%
viability, T/C [14]: 92.7%
viability, T/C [15]: 108%
viability, T/C [16]: 96.8%
viability, T/C [17]: 94.4%
viability, T/C [18]: 58.5%
viability, T/C [19]: 80.9%
viability, T/C [20]: 82.8%
viability, T/C [21]: 86.1%
viability, T/C [22]: 101%
viability, T/C [23]: 94.8%
viability, T/C [24]: 55.9%
viability, T/C [25]: 86.4%
viability, T/C [26]: 87.4%
viability, T/C [27]: 97.1%
viability, T/C [28]: 85%
viability, T/C [29]: 93.9%
viability, T/C [30]: 53.4%
viability, T/C [31]: 58.5%
viability, T/C [32]: 58.1%
viability, T/C [33]: 75.3%
viability, T/C [34]: 65.3%
viability, T/C [35]: 66.1%
viability, T/C [36]: 49.5%

CC1COCCN1c1cc(C2(O)CC3CCC(C2)O3)c2cnn(-c3ccn[nH]3)c2n1 (stereo not drawn) + Cc1[nH]c2ccc(F)cc2c1-c1nc2c3cccnc3c3ncccc3c2[nH]1
IC50 (second compound 0.0316 µM): < 0.0316 µM
IC50 (second compound 0.1 µM): < 0.0316 µM
IC50 (second compound 0.316 µM): < 0.0316 µM
IC50 (second compound 1 µM): < 0.0316 µM
IC50 (second compound 3.16 µM): < 0.0316 µM
IC50 (second compound 10 µM): < 0.0316 µM
viability, T/C [1]: 32.6%
viability, T/C [2]: 10.8%
viability, T/C [3]: 13.3%
viability, T/C [4]: 19.7%
viability, T/C [5]: 19.2%
viability, T/C [6]: 8.74%
viability, T/C [7]: 32.5%
viability, T/C [8]: 11.2%
viability, T/C [9]: 12.6%
viability, T/C [10]: 19.3%
viability, T/C [11]: 20.1%
viability, T/C [12]: 8.59%
viability, T/C [13]: 28.1%
viability, T/C [14]: 11.6%
viability, T/C [15]: 12.2%
viability, T/C [16]: 16.5%
viability, T/C [17]: 20.5%
viability, T/C [18]: 7.43%
viability, T/C [19]: 34.3%
viability, T/C [20]: 10.7%
viability, T/C [21]: 12.4%
viability, T/C [22]: 17.4%
viability, T/C [23]: 22.9%
viability, T/C [24]: 10.7%
viability, T/C [25]: 38.7%
viability, T/C [26]: 10.7%
viability, T/C [27]: 13.9%
viability, T/C [28]: 22.5%
viability, T/C [29]: 25.4%
viability, T/C [30]: 8.16%
viability, T/C [31]: 29.5%
viability, T/C [32]: 10.6%
viability, T/C [33]: 15%
viability, T/C [34]: 20.7%
viability, T/C [35]: 26.7%
viability, T/C [36]: 6.74%
